Reference: publication PMC8505397, “Development of peptides targeting receptor binding site of the envelope glycoprotein to contain the West Nile virus infection” (Scientific Reports, 2021)

Assays:
hBMECs = test: Peptide cytotoxicity assay (XTT); type: cell-based, human; conditions: 1 μM, 2 μM, 4 μM and 6 μM; 24 h
Procedure: The toxicity of peptides was determined by the XTT test (AppliChem, USA) as per the manufacturer’s instructions. Details are presented in Supplementary Method S15. […]
Cytotoxicity assay. hBMECs were cultured in 96-well TPP tissue culture plates (Sigma) in supplemented EBM-2 medium (Lonza) to obtain ~70% confluency (as described in Supplementary Method S1). The peptides in concentrations of 1 µM, 2 µM, 4 µM, and 6 µM (diluted in 100 µL of EBM-2 medium supplemented only with 10% FBS, 10 mM HEPES and 1 ng/mL bFGF; Sigma) were added and incubated for 24 h at 37°C in a humid atmosphere of 5% CO2. Untreated cells served as a negative control (100% viability). For positive control, cells treated with 0.01% Triton X-100 were used. After incubation, the mixture of XTT and activation reagent (5:0.1 [v/v], 50 µL each well) was added to each well and incubated for an additional 3 h at 37°C in a humid atmosphere of 5% CO2. The absorbance was measured at 450 nm. The assay was performed in replicates. The viability (%) of endothelial cells was calculated using the formula: Cell viability (%) = [(A - xA ) × 100] / (xA -

Hemolysis assay = type: cell-based; conditions: sheep, red blood cells (washed, in saline); 1 μM and 6 μM; 1 h and 5 h; threshold for hemolytic activity > 10%; read-out: hemolysis, maximum release of the hemoglobin
Procedure: Hemolysis assay was performed according to the method of Bender et al.[94]. Details are presented in Supplementary Method S16. […]
Assessment of the hemolytic activity. Sheep whole blood (10 mL) was centrifuged at 2000 rpm for 5 min at room temperature. The red blood cells (RBCs) were carefully separated from […]
plasma and washed 3 times with saline (0.9% NaCl). The washed RBCs were resuspended in saline (50 mL). Peptides at two different concentrations (1 µM and 6 µM) resuspended in saline solution (100 µL) were added to the RBCs suspension (100 µL). As a positive control (100% lysis), 0.1% Triton X-100 was used. Negative control (0% lysis) was prepared by adding only saline (100 µL) to the RBCs suspension (100 µL). All samples were incubated at 37°C for 1 h and 5 h. The mixtures were gently shaked every 30 min. After incubation, the RBCs were separated by centrifugation (2000 rpm for 5 min) and the supernatant (100 µL) was incubated for 30 min at ambient conditions to oxidize the hemoglobin. The absorbance of oxyhemoglobin present in the supernatant was assessed by absorption at 414 nm. The assay was performed in triplicates. The hemolysis (%) of the RBCs was calculated using the following formula: Hemolysis (%) = [(Asample - xĀ negative control) / xĀ positive control] × 100. […]
(TCID50/ml) exactly as described before1. […]

CC[C@H](C)[C@@H]1NC(=O)[C@@H](NC(=O)[C@H](C)N)CSSC[C@@H](C(=O)NCC(=O)NCC(=O)NCC(=O)N[C@@H](CO)C(=O)O)NC(=O)[C@H](C)NC(=O)[C@H](CCCNC(=N)N)NC(=O)[C@H]([C@@H](C)O)NC(=O)[C@H](CO)NC(=O)[C@H](CO)NC(=O)[C@H](Cc2c[nH]cn2)NC1=O [CP4, CIHSSTRAC]
cytotoxic effect on hBMECs (XTT) (hBMECs): None of the peptides was toxic | hemolysis (Hemolysis assay): < 0.15%
